{
  "source": "paper PMC8552062",
  "about": "“Contributions of UDP-Glucuronosyltransferases to Human Hepatic and Intestinal Metabolism of Ticagrelor and Inhibition of UGTs and Cytochrome P450 Enzymes by Ticagrelor and its Glucuronidated Metabolite” (Frontiers in Pharmacology, 2021)",
  "key": {"UGT1A9": {"molecular_target": "T1, UGT1A9 (Homo sapiens, UniProt O60656)", "T1 sequence (O60656 26-530)": "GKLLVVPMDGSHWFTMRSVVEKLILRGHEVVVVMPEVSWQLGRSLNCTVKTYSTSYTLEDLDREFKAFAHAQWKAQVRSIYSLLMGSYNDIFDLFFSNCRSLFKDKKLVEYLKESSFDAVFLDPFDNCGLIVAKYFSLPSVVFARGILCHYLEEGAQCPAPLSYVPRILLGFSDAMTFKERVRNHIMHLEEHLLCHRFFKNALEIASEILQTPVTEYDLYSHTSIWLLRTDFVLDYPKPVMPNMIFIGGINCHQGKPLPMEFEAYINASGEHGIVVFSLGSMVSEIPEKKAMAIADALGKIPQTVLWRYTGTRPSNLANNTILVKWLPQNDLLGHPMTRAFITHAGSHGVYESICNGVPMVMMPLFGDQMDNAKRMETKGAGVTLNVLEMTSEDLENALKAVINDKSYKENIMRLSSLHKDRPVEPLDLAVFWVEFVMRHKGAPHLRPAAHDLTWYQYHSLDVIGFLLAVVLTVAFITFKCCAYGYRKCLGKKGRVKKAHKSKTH", "test": "Ticagrelor glucuronidation by recombinant human UGT1A9", "assay_type": "in vitro ADME", "set-up": "purchased BD Gentest; host or cells: baculovirus-infected insect cells", "details": "recombinant human UGT1A9, pH 7.4", "description": "(§1) Ticagrelor glucuronidation was investigated in an in vitro incubation system by using HLM, HIM, and recombinant human UGTs. The incubation system consisted of enzyme sources (HLM, HIM, or human recombinant UGTs), various concentrations of ticagrelor (dissolved in 50% methanol, 1% v/v, 1, 2, 5, 10, 20, 50, 100, 200, 500 μM of final concentration), alamethicin (50 μg/mg protein), 5 mM MgCl2, 100 mM tris-HCL buffer (pH 7.4), and 5 mM UDPGA in a total volume of 100 μl. Alamethicin is a pore-forming polypeptide used to activate UGTs in HLM and HIM ([Fisher et al., 2000]). Preliminary studies were conducted to determine the optimal protein concentrations and incubation times. Linear conditions of ticagrelor-O-Glu formation from ticagrelor, i.e., HLM, 0.2 mg of protein/ml and 60 min, HIM, 0.2 mg of protein/ml and 60 min, and recombinant human UGTs, 0.2 mg of protein/ml and 60 min were selected. The incubation mixture without UDPGA was placed on ice for 15 min to activate UGT by alamethicin. […]\nKinetic analyses were performed using the mean values of triplicate determinations with either pooled HLM, HIM, or recombinant human UGTs. All data were analyzed by nonlinear regression analysis using the GraphPad Prism 6 (GraphPad Software Inc., CA, United States). […] Intrinsic clearance (CLint) was calculated by dividing Vmax by Km."}, "UGT1A6": {"molecular_target": "T2, UGT1A6 (Homo sapiens, UniProt P19224)", "T2 sequence (P19224 27-532)": "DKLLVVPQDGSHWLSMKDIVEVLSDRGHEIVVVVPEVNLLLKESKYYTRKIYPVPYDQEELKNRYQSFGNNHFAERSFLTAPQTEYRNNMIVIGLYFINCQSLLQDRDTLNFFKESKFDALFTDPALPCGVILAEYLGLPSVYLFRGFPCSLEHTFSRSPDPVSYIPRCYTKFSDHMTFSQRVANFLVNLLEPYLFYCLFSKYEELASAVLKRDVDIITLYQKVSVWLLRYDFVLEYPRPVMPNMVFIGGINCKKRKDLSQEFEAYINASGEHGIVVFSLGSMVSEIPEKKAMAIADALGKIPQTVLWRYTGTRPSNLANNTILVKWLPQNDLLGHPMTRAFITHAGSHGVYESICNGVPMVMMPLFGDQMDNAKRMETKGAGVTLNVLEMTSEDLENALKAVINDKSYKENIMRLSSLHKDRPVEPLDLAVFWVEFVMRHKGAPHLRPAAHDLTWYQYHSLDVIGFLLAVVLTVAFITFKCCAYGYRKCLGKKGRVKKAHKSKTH", "test": "Ticagrelor glucuronidation screen, recombinant human UGT1A6", "assay_type": "in vitro ADME", "set-up": "purchased BD Gentest; host or cells: baculovirus-infected insect cells", "details": "10 μM ticagrelor", "description": "as §1, with “alamethicin. After pre-incubation for 5 min at 37°C, the reactions were started by the addition of UDPGA. After another 60 min of incubation at 37°C, the reaction was terminated by adding 100 μl of acetonitrile containing internal standard (diazepam). The mixture vortexed for 2 min and then centrifuged at 14,000 rpm for 10 min at 4°C.” for “alamethicin.”"}},
  "data": [
    {"smiles": "CCCSc1nc(N[C@@H]2C[C@H]2c2ccc(F)c(F)c2)c2nnn([C@@H]3C[C@H](OCCO)[C@@H](O)[C@H]3O)c2n1", "note": "[Ticagrelor]", "values": [
      {"measurement": "microsomal CLint", "setting": "UGT1A9", "result": 0.56, "unit": "µL/min/mg"},
      {"measurement": "glucuronidation activity for ticagrelor", "setting": "UGT1A6", "result": "no glucuronidation activities"}
    ]}
  ]
}
